# Measured values: patent US3984393A, “Aminoglycoside antibiotics” (The Upjohn Company, priority 1975, dated 1976)
# Read-outs that look alike come from different tables or passages of the source.
# Legend:
# B. cereus = assay: standard disc plate assay, 12.5 mm paper discs (zone of inhibition), B. cereus; type: cell-based, Bacillus cereus; settings: for zone of inhibition at 5000 µg/mL / zone of inhibition at 10000 µg/mL: Bacillus cereus, B. cereus; for zone of inhibition at 5000 µg/mL: 5 mg/ml; for zone of inhibition at 10000 µg/mL: 10 mg/ml; for active against Bacillus cereus: conclusion in words from the above results
# Source text: (§1) The novel intermediates, disclosed herein, are useful to make novel aminoglycoside antibiotics. These novel aminoglycoside antibiotics are antibacterially active, and, thus, they can be used in various environments to eradicate or control sensitive bacteria. Following are in vitro antibacterial test results for representative compounds of the subject invention. The results were obtained with a standard disc plate assay using 12.5 mm paper discs.
# B. subtilis = assay: standard disc plate assay, 12.5 mm paper discs (zone of inhibition), B. subtilis; type: cell-based, Bacillus subtilis; settings: for zone of inhibition at 5000 µg/mL / zone of inhibition at 10000 µg/mL: Bacillus subtilis, B. subtilis; for zone of inhibition at 5000 µg/mL: 5 mg/ml; for zone of inhibition at 10000 µg/mL: 10 mg/ml; for active against Bacillus subtilis: conclusion in words from the above results
# Source text: as §1
# S. aureus UC 76 = assay: standard microplate test in BHI Agar (MIC), S. aureus UC 76; type: cell-based, Staphylococcus aureus; settings: for MIC: Staphylococcus aureus, UC76, 20 h, read-out: Minimum Inhibitory Concentration
# Experimental: (§2) Compounds were also tested in a standard microplate test in Brain Heart Infusion (BHI) Agar, at a concentration of 1 mg/ml. Incubation is at 37° and end points are read at 20 hours. Brain Heart Infusion Agar (supplied by Difco Laboratories, Detroit, Michigan, U.S.A.) has the following composition:
# (§3) Compounds (7β), (7α) and (9) were tested again along with compounds (11) and (14β) against a neamine control using the same conditions as given above.
# S. aureus UC 570 = assay: standard microplate test in BHI Agar (MIC), S. aureus UC 570; type: cell-based; settings: Staphylococcus aureus, first table, read-out: Minimum Inhibitory Concentration
# Experimental: as §2, with “composition: […]” for “composition:”
# S. aureus UC 746 = assay: standard microplate test in BHI Agar (MIC), S. aureus UC 746; type: cell-based; settings: Staphylococcus aureus, UC746, 37°, 20 h, first table, read-out: Minimum Inhibitory Concentration
# Experimental: as §2, with “composition: […]” for “composition:”
# S. hemolyticus UC 152 = assay: standard microplate test in BHI Agar (MIC), S. hemolyticus UC 152; type: cell-based, Streptococcus hemolyticus; settings: for MIC: Streptococcus pyogenes
# Experimental: as §2, §3
# St. faecalis UC 694 = assay: standard microplate test in BHI Agar (MIC), St. faecalis UC 694; type: cell-based; settings: Enterococcus faecalis, UC694, 20 h, read-out: Minimum Inhibitory Concentration
# Experimental: as §2, §3
# E. coli UC 45 = assay: standard microplate test in BHI Agar (MIC), E. coli UC 45; type: cell-based; settings: Escherichia coli, UC45, 20 h, E. coli UC 45, read-out: Minimum Inhibitory Concentration
# Experimental: as §2, §3
# P. vulgaris UC 93 = assay: standard microplate test in BHI Agar (MIC), P. vulgaris UC 93; type: cell-based; settings: Proteus vulgaris, UC93, 20 h, P. vulgaris UC 93, read-out: Minimum Inhibitory Concentration
# Experimental: as §2, §3
# K. pneumoniae UC 58 = assay: standard microplate test in BHI Agar (MIC), K. pneumoniae UC 58; type: cell-based; settings: Klebsiella pneumoniae, UC58, 20 h
# Experimental: as §2, §3
# S. schottmuelleri UC 126 = assay: standard microplate test in BHI Agar (MIC), S. schottmuelleri UC 126; type: cell-based; settings: 20 h, read-out: Minimum Inhibitory Concentration
# Experimental: as §2, §3
# Ps. aeruginosa UC 95 = assay: standard microplate test in BHI Agar (MIC), Ps. aeruginosa UC 95; type: cell-based; settings: Pseudomonas aeruginosa, UC95, 20 h, Ps. aeruginosa UC 95, read-out: Minimum Inhibitory Concentration
# Experimental: as §2, §3
# D. pneumoniae UC 41 = assay: standard microplate test in BHI Agar (MIC), D. pneumoniae UC 41; type: cell-based; settings: Streptococcus pneumoniae, UC41, 20 h, D. pneumoniae UC 41, read-out: Minimum Inhibitory Concentration
# Experimental: as §2, §3
# P. mirabilis A-63 = assay: standard microplate test in BHI Agar (MIC), P. mirabilis A-63; type: cell-based; settings: Proteus mirabilis, A63, 20 h, P. mirabilis A-63, retest table, neamine control, read-out: Minimum Inhibitory Concentration
# Experimental: as §2, §3
# P. morgani UC 3186 = assay: standard microplate test in BHI Agar (MIC), P. morgani UC 3186; type: cell-based; settings: 20 h, P. morgani UC 3186, retest table, neamine control, read-out: Minimum Inhibitory Concentration
# Experimental: as §2, §3
# P. rettgeri UC 339 = assay: standard microplate test in BHI Agar (MIC), P. rettgeri UC 339; type: cell-based; settings: Providencia rettgeri, UC339, 20 h, P. rettgeri UC 339, retest table, neamine control, read-out: Minimum Inhibitory Concentration
# Experimental: as §2, §3
# S. marcescens UC 131 = assay: standard microplate test in BHI Agar (MIC), S. marcescens UC 131; type: cell-based; settings: Serratia marcescens, UC131, 20 h, S. marcescens UC 131, retest table, neamine control, read-out: Minimum Inhibitory Concentration
# Experimental: as §2, §3
# S. flexneri UC 143 = assay: standard microplate test in BHI Agar (MIC), S. flexneri UC 143; type: cell-based; settings: Shigella flexneri, UC143, 20 h, retest table, neamine control, read-out: Minimum Inhibitory Concentration
# Experimental: as §2, §3
# S. typhi TG-3 = assay: standard microplate test in BHI Agar (MIC), S. typhi TG-3; type: cell-based; settings: Salmonella enterica, 20 h, read-out: Minimum Inhibitory Concentration
# Experimental: as §2, §3
# [1] = BHI agar, 37°, 20 h, first table
# [2] = retest table, group (9), (11), (7α), neamine control
# [3] = BHI agar, 37°, 20 h, first table, *run on different day
# [4] = retest table, group (7β), (14β), neamine control
smiles,measurement,setting,value
CC1(O[C@@H]2[C@@H](O)[C@H](O[C@H]3O[C@H](CN)[C@@H](O)[C@H](O)[C@H]3N)[C@@H](N)C[C@H]2N)O[C@H]2O[C@H](CO)[C@@H](O)[C@H]2O1 (stereo partly shown) [Compound (9)],zone of inhibition at 5000 µg/mL,B. cereus,29 mm
same,zone of inhibition at 10000 µg/mL,B. cereus,34 mm
same,active against Bacillus cereus,B. cereus,active
same,zone of inhibition at 5000 µg/mL,B. subtilis,32 mm
same,zone of inhibition at 10000 µg/mL,B. subtilis,34 mm
same,active against Bacillus subtilis,B. subtilis,active
same,MIC,"S. aureus UC 76; S. aureus UC 76, retest table, group (9), (11), (7α), neamine control",125 µg/mL
same,active against Staphylococcus aureus,S. aureus UC 76; conclusion in words from the above results,active
same,MIC,"S. aureus UC 570; UC570, 20 h, 37°",250 µg/mL
same,MIC,S. aureus UC 746,250 µg/mL
same,Minimum Inhibitory Concentration,"S. hemolyticus UC 152; S. hemolyticus UC 152, retest table, group (9), (11), (7α), neamine control",3.9 µg/mL
same,MIC,"S. hemolyticus UC 152; UC152, S. hemolyticus UC 152, BHI agar, 37°, 20 h, first table, read-out: Minimum Inhibitory Concentration",3.9 µg/mL
same,MIC,"St. faecalis UC 694; S. faecalis UC 694, retest table, group (9), (11), (7α), neamine control",1000 µg/mL
same,MIC,"St. faecalis UC 694; St. faecalis UC 694, BHI agar, 37°, 20 h, first table",> 1000 µg/mL
same,MIC,E. coli UC 45; [1],250 µg/mL
same,MIC,E. coli UC 45; [2],250 µg/mL
same,MIC,P. vulgaris UC 93; [1],500 µg/mL
same,MIC,P. vulgaris UC 93; [2],125 µg/mL
same,MIC,"K. pneumoniae UC 58; read-out: Minimum Inhibitory Concentration, K. pneumoniae UC 58, BHI agar, 37°, 20 h, first table",62.5 µg/mL
same,MIC,"K. pneumoniae UC 58; K. pneumoniae UC 58, retest table, group (9), (11), (7α), neamine control, read-out: Minimum Inhibitory Concentration",31.2 µg/mL
same,MIC,"S. schottmuelleri UC 126; BHI agar, 37°, first table",250 µg/mL
same,MIC,S. schottmuelleri UC 126; [2],62.5 µg/mL
same,MIC,Ps. aeruginosa UC 95; [1],> 1000 µg/mL
same,MIC,Ps. aeruginosa UC 95; [2],1000 µg/mL
same,MIC,D. pneumoniae UC 41; [1],> 1000 µg/mL
same,MIC,D. pneumoniae UC 41; [2],125 µg/mL
same,MIC,"P. mirabilis A-63; group (9), (11), (7α)",500 µg/mL
same,MIC,"P. morgani UC 3186; group (9), (11), (7α)",125 µg/mL
same,MIC,"P. rettgeri UC 339; group (9), (11), (7α)",1000 µg/mL
same,MIC,"S. marcescens UC 131; group (9), (11), (7α)",500 µg/mL
same,MIC,"S. flexneri UC 143; group (9), (11), (7α)",500 µg/mL
same,MIC,S. typhi TG-3,250 µg/mL
"NC[C@H]1O[C@H](O[C@H]2[C@H](O)[C@@H](O[C@@H]3O[C@H](CO)[C@@H](O)[C@H]3O)[C@H](N)C[C@@H]2N)[C@H](N)[C@@H](O)[C@@H]1O [(7β), 6-O-(β-D-Ribofuranosyl)neamine]",zone of inhibition at 5000 µg/mL,B. cereus,25 mm
same,zone of inhibition at 10000 µg/mL,B. cereus,34 mm
same,active against Bacillus cereus,B. cereus,active
same,zone of inhibition at 5000 µg/mL,B. subtilis,35 mm
same,zone of inhibition at 10000 µg/mL,B. subtilis,38 mm
same,active against Bacillus subtilis,B. subtilis,active
same,MIC,"S. aureus UC 76; S. aureus 284 UC 76, BHI agar, 37°, 20 h, first table, *run on different day",1000 µg/mL
same,MIC,"S. aureus UC 76; S. aureus UC 76, retest table, group (7β), (14β), neamine control",500 µg/mL
same,MIC,"S. aureus UC 570; UC570, 37°, 20 h, *run on different day",1000 µg/mL
same,MIC,S. aureus UC 746; *run on different day,500 µg/mL
same,MIC,"S. hemolyticus UC 152; UC152, 20 h, read-out: Minimum Inhibitory Concentration, S. hemolyticus UC 152, BHI agar, 37°, 20 h, first table, *run on different day",62.5 µg/mL
same,MIC,"S. hemolyticus UC 152; UC152, 20 h, S. hemolyticus UC 152, retest table, group (7β), (14β), neamine control, read-out: Minimum Inhibitory Concentration",250 µg/mL
same,MIC,"St. faecalis UC 694; S. faecalis UC 694, retest table, group (7β), (14β), neamine control",1000 µg/mL
same,MIC,"St. faecalis UC 694; St. faecalis UC 694, BHI agar, 37°, 20 h, first table, *run on different day",> 1000 µg/mL
same,MIC,E. coli UC 45; [3],500 µg/mL
same,MIC,E. coli UC 45; [4],1000 µg/mL
same,MIC,P. vulgaris UC 93; [3],500 µg/mL
same,MIC,P. vulgaris UC 93; [4],1000 µg/mL
same,MIC,"K. pneumoniae UC 58; read-out: Minimum Inhibitory Concentration, K. pneumoniae UC 58, BHI agar, 37°, 20 h, first table, *run on different day",62.5 µg/mL
same,MIC,"K. pneumoniae UC 58; K. pneumoniae UC 58, retest table, group (7β), (14β), neamine control, read-out: Minimum Inhibitory Concentration",250 µg/mL
same,MIC,"S. schottmuelleri UC 126; BHI agar, 37°, first table, *run on different day",250 µg/mL
same,MIC,S. schottmuelleri UC 126; [4],500 µg/mL
same,MIC,Ps. aeruginosa UC 95; [3],> 1000 µg/mL
same,MIC,Ps. aeruginosa UC 95; [4],1000 µg/mL
same,MIC,D. pneumoniae UC 41; [3],> 1000 µg/mL
same,MIC,D. pneumoniae UC 41; [4],1000 µg/mL
same,MIC,"P. mirabilis A-63; group (7β), (14β)",1000 µg/mL
same,MIC,"P. morgani UC 3186; group (7β), (14β)",1000 µg/mL
same,MIC,"P. rettgeri UC 339; group (7β), (14β)",1000 µg/mL
same,MIC,"S. marcescens UC 131; group (7β), (14β)",1000 µg/mL
same,MIC,"S. flexneri UC 143; group (7β), (14β)",1000 µg/mL
same,MIC,S. typhi TG-3,1000 µg/mL
